According to patent US5217960A, “Erythromycin derivatives” (priority 1991, dated 1993):
≈ marks a conversion by molar mass, not a printed value. Where two headings read alike, the source gives them in different places.

How the values were obtained:
Assay type in all cases: cell-based
ESCHERICHIA COLI KNK 437 = experiment: microbe, parasite or virus in culture; settings: E. coli KNK 437, BHI agar, 35-37° C., 20 to 24 hours
[1] = tested on: STREPTOCOCCUS PYOGENES 930 CONST; experiment: In vitro antibacterial activity, agar dilution MIC; settings: S. pyogenes 930 CONST, BHI agar, 35-37° C., 20 to 24 hours, read-out: MIC
[2] = tested on: STREPTOCOCCUS BOVIS A5169; experiment: In vitro antibacterial activity, agar dilution MIC; settings: 24 h
[3] = tested on: STAPHYLOCOCCUS EPIDERMIDIS 3519; experiment: microbe, parasite or virus in culture; settings: 24 h
[4] = tested on: STAPHYLOCOCCUS AUREUS ATCC 6538P; experiment: In vitro antibacterial activity, agar dilution MIC; settings: ATCC6538P, 24 h
[5] = tested on: STAPHYLOCOCCUS AUREUS 642A; experiment: In vitro antibacterial activity, agar dilution MIC
[6] = tested on: PSEUDOMONAS AERUGINOSA A5007; experiment: In vitro antibacterial activity, agar dilution MIC; settings: P. aeruginosa A5007, BHI agar, 35-37° C., 20 to 24 hours
[7] = tested on: STAPHYLOCOCCUS AUREUS 1775; experiment: In vitro antibacterial activity, agar dilution MIC; settings: S. aureus 1775, BHI agar, 35-37° C., 20 to 24 hours, read-out: MIC
[8] = tested on: ENTEROBACTER AEROGENES ATCC 13048; experiment: In vitro antibacterial activity, agar dilution MIC; settings: Klebsiella aerogenes, ATCC13048; E. aerogenes ATCC 13048; BHI agar, 35-37° C., 20 to 24 hours; read-out: MIC
M[…] ATCC 4698 = experiment: In vitro antibacterial activity, agar dilution MIC; settings: Micrococcus luteus, ATCC4698, 24 h
Description: (§1) Representative compounds of the present invention were assayed in vitro for antibacterial activity as follows: Twelve petri dishes containing successive aqueous dilutions of the test compound mixed with 10 ml of sterilized Brain Heart Infusion (BHI) agar (Difco 0418-01-5) were prepared. Each plate was inoculated with 1:100 (or 1:10 for slow-growing strains, such as Micrococcus and Streptococcus) dilutions of up to 32 different microorganisms, using a Steers replicator block. The inoculated plates were incubated at 35°-37° C. for 20 to 24 hours. In addition, a control plate, using BHI agar containing no test compound, was prepared and incubated at the beginning and end of each test.
(§2) An additional plate containing a compound having known susceptibility patterns for the organisms being tested and belonging to the same antibiotic class as the test compound was also prepared and incubated as a further control, as well as to provide test-to-test comparability. Erythromycin A was used for this purpose.
(§3) After incubation, each disk was read. The minimum inhibitory concentration (MIC) was defined as the lowest concentration of drug yielding no growth, a slight haze, or sparsely isolated colonies on the inoculum spot as compared to the growth control. The results of this assay, shown below in Tables 1 and 2, support the conclusion that the compounds of the invention are effective antibacterial agents.

M[…] ATCC 9341 = experiment: In vitro antibacterial activity, agar dilution MIC; settings: Micrococcus luteus, ATCC9341, 24 h
Description: as §1, §2, §3

[9] = tested on: PSEUDOMONAS AERUGINOSA K799/61; experiment: In vitro antibacterial activity, agar dilution MIC; settings: P. aeruginosa K799/61, BHI agar, 35-37° C., 20 to 24 hours, read-out: MIC
Description: as §1, §2, §3

EN[…] ATCC 8043 = experiment: In vitro antibacterial activity, agar dilution MIC; settings: Enterococcus faecium, ATCC8043, 24 h
Description: as §1, §2, §3

[10] = tested on: STAPHYLOCOCCUS AUREUS NCTC 10649; experiment: In vitro antibacterial activity, agar dilution MIC
STR[…] 508 = experiment: In vitro antibacterial activity, agar dilution MIC; settings: Streptococcus agalactiae, 24 h
Description: as §1, §2
(§4) After incubation, each disk was read. The minimum inhibitory concentration (MIC) was defined as the lowest concentration of drug yielding no growth, a slight haze, or sparsely isolated colonies on the inoculum spot as compared to the growth control.

STR[…] EES61 = experiment: In vitro antibacterial activity, agar dilution MIC; settings: Streptococcus pyogenes, 24 h
Description: as §1, §2, §4

ESCHERICHIA COLI SS = experiment: In vitro antibacterial activity, agar dilution MIC
[11] = tested on: PROVIDENCIA STUARTII CMX 640; experiment: microbe, parasite or virus in culture; settings: P. stuartii CMX 640, BHI agar, 35-37° C., 20 to 24 hours
STAPHYLOCOCCUS AUREUS 45 = experiment: In vitro antibacterial activity, agar dilution MIC
[12] = tested on: PSEUDOMONAS AERUGINOSA BMH10; experiment: In vitro antibacterial activity, agar dilution MIC
ESCHERICHIA COLI JUHL = experiment: microbe, parasite or virus in culture; settings: E. coli JUHL, BHI agar, 35-37° C., 20 to 24 hours, read-out: MIC
ESCHERICHIA COLI H560 = experiment: In vitro antibacterial activity, agar dilution MIC
[13] = tested on: KLEBSIELLA PNEUMONIAE ATCC 8045; experiment: In vitro antibacterial activity, agar dilution MIC; settings: ATCC8045, K. pneumoniae ATCC 8045, BHI agar, 35-37° C., 20 to 24 hours, read-out: MIC
[14] = tested on: STREPTOCOCCUS PYOGENES 2548 INDUC; experiment: In vitro antibacterial activity, agar dilution MIC
[15] = tested on: PSEUDOMONAS AERUGINOSA K799/WT; experiment: In vitro antibacterial activity, agar dilution MIC; settings: P. aeruginosa K799/WT, BHI agar, 35-37° C., 20 to 24 hours
[16] = tested on: STAPHYLOCOCCUS AUREUS A5177; experiment: In vitro antibacterial activity, agar dilution MIC
PSEUDOMONAS CEPACIA 296I = experiment: In vitro antibacterial activity, agar dilution MIC; settings: Burkholderia cepacia; P. cepacia 296I; BHI agar, 35-37° C., 20 to 24 hours; read-out: MIC
[17] = tested on: ACINETOBACTER CALCOACETICUS CMX 669; experiment: In vitro antibacterial activity, agar dilution MIC; settings: A. calcoaceticus CMX 669, BHI agar, 35-37° C., 20 to 24 hours
[18] = tested on: STAPHYLOCOCCUS AUREUS CMX 553; experiment: In vitro antibacterial activity, agar dilution MIC; settings: 24 h
ESCHERICHIA COLI DC-2 = experiment: In vitro antibacterial activity, agar dilution MIC; settings: E. coli DC-2, BHI agar, 35-37° C., 20 to 24 hours, read-out: MIC

Row | SMILES | MIC (ESCHERICHIA COLI KNK 437) [µg/mL] | MIC [1] [µg/mL] | MIC [2] [µg/mL] | MIC [3] [µg/mL] | MIC [4] [µg/mL] | MIC [6] [µg/mL] | MIC [7] [µg/mL] | MIC [8] [µg/mL] | MIC (M[…] ATCC 4698) [µg/mL] | MIC (M[…] ATCC 9341) [µg/mL] | MIC [9] [µg/mL] | MIC (EN[…] ATCC 8043) [µg/mL] | MIC [11] [µg/mL] | MIC (ESCHERICHIA COLI JUHL) [µg/mL] | MIC [13] [µg/mL] | MIC [15] [µg/mL] | MIC (PSEUDOMONAS CEPACIA 296I) [µg/mL] | MIC [17] [µg/mL] | MIC (ESCHERICHIA COLI DC-2) [µg/mL] | further results
1 | CC[C@H]1OC(=O)[C@H](C)[C@@H](O[C@H]2C[C@@](C)(OC)[C@@H](O)[C@H](C)O2)[C@H](C)[C@@H](O[C@@H]2O[C@H](C)C[C@H](N(C)C)[C@H]2O)[C@](C)(O)C[C@@H](C)[C@@H](N(C)C)[C@H](C)[C@@H](O)[C@@]1(O)CO [Compound 10, (9R)-9-deoxo-9-(N,N-dimethylamino)-21-hydroxyerythromycin A] | > 100 | > 100 | 3.1 (≈ 3.98 µM) | 25 (≈ 32.1 µM) | 25 (≈ 32.1 µM) | > 100 | > 100 | > 100 | 3.1 (≈ 3.98 µM) | 6.2 (≈ 7.96 µM) | 50 (≈ 64.2 µM) | 12.5 (≈ 16 µM) | > 100 | > 100 | > 100 | > 100 | > 100 | > 100 | > 100 | MIC ([5]; 24 h): 25 µg/mL (≈ 32.1 µM); MIC ([10]; NCTC10649, 24 h): 12.5 µg/mL (≈ 16 µM); MIC (STR[…] 508): 3.1 µg/mL (≈ 3.98 µM); MIC (STR[…] EES61): 1.56 µg/mL (≈ 2 µM); MIC (ESCHERICHIA COLI SS; 24 h): 1.56 µg/mL (≈ 2 µM); MIC (STAPHYLOCOCCUS AUREUS 45; 24 h): 25 µg/mL (≈ 32.1 µM); MIC ([12]; P. aeruginosa BMH10, BHI agar, 35-37° C., 20 to 24 hours, read-out: MIC): > 100 µg/mL; MIC (ESCHERICHIA COLI H560; E. coli H560, BHI agar, 35-37° C., 20 to 24 hours, read-out: MIC): 100 µg/mL (≈ 128 µM); MIC ([14]; S. pyogenes 2548 INDUC, BHI agar, 35-37° C., 20 to 24 hours, read-out: MIC): 100 µg/mL (≈ 128 µM); MIC ([16]; 24 h): > 100 µg/mL; MIC [18]: 25 µg/mL (≈ 32.1 µM)
2 | CC[C@H]1OC(=O)[C@H](C)[C@@H](O[C@H]2C[C@@](C)(OC)[C@@H](O)[C@H](C)O2)[C@H](C)[C@@H](O[C@@H]2O[C@H](C)C[C@H](N(C)C)[C@H]2O)[C@](C)(O)C[C@@H](C)[C@@H](N(C)C)[C@H](C)[C@@H](O)[C@@]12CO2 [Compound 8, (9R)-9-deoxo-9-(N,N-dimethylamino)-12,21-epoxyerythromycin A] | 50 (≈ 65.7 µM) | > 100 | 0.02 (≈ 0.0263 µM) | 0.39 (≈ 0.512 µM) | 0.78 (≈ 1.02 µM) | > 100 | > 100 | > 100 | 0.1 (≈ 0.131 µM) | 0.1 (≈ 0.131 µM) | 12.5 (≈ 16.4 µM) | 0.02 (≈ 0.0263 µM) | > 100 | 100 (≈ 131 µM) | 100 (≈ 131 µM) | > 100 | > 100 | 12.5 (≈ 16.4 µM) | 50 (≈ 65.7 µM) | MIC ([5]; S. aureus 642A, BHI agar, 35-37° C., 20 to 24 hours, read-out: MIC): 1.56 µg/mL (≈ 2.05 µM); MIC ([10]; NCTC10649, S. aureus NCTC 10649, BHI agar, 35-37° C., 20 to 24 hours, read-out: MIC): 0.78 µg/mL (≈ 1.02 µM); MIC (ESCHERICHIA COLI SS; E. coli SS, BHI agar, 35-37° C., 20 to 24 hours, read-out: MIC): 0.39 µg/mL (≈ 0.512 µM); MIC (STAPHYLOCOCCUS AUREUS 45; S. aureus 45, BHI agar, 35-37° C., 20 to 24 hours, read-out: MIC): 0.78 µg/mL (≈ 1.02 µM); MIC ([12]; 24 h): > 100 µg/mL; MIC (ESCHERICHIA COLI H560; 24 h): 25 µg/mL (≈ 32.9 µM); MIC ([14]; 24 h): 6.2 µg/mL (≈ 8.15 µM); MIC ([16]; S. aureus A5177, BHI agar, 35-37° C., 20 to 24 hours, read-out: MIC): 50 µg/mL (≈ 65.7 µM)
